PMC7435819, “Towards the Inhibition of Protein–Protein Interactions (PPIs) in STAT3: Insights into a New Class of Benzothiadiazole Derivatives” (Molecules, 2020)
Like-named read-outs stand apart in the source and are kept apart here.

Assays:
STAT3 = target: T1, STAT3 (Homo sapiens, UniProt P40763); experiment: AlphaScreen-based competitive binding assay, STAT3 SH2 domain vs FITC-GpYLPQTV; details: for % of control, STAT3 AlphaScreen: WT
T1 construct: a truncated form of STAT3 (136-705) was constructed and chromatographically purified; made in house
T1 sequence (P40763 136-705): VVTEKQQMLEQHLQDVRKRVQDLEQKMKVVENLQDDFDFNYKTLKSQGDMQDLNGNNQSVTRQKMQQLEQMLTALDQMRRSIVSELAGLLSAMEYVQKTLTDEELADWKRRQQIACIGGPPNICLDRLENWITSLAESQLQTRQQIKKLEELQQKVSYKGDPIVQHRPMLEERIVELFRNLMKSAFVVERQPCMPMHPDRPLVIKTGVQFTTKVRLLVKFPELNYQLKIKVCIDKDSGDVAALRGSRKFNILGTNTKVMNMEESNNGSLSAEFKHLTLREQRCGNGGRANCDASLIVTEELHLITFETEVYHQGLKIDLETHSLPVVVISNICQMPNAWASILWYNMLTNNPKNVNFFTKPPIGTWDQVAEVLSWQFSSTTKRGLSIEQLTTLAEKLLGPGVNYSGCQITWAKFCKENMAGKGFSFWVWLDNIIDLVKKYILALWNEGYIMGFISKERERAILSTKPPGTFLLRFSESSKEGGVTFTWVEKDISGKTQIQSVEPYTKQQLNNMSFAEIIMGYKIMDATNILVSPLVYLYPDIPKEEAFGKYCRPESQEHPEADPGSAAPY
Source text: (§1) AlphaScreen is an in vitro competitive binding test used to identify compounds that are able to inhibit the binding of proteins containing an SH2 domain to their corresponding phosphopeptides (5-carboxyfluorescein (FITC)-GpYLPQTV for STAT3 and FITC-GpYDKPHVL for STAT1) (Table 2).
(§2) AlphaScreen is a bead-based non-radioactive assay system for the detection of biomolecular interactions in a microtiter plate format. The binding of biological partners brings donor and acceptor beads into close proximity and, as a result, a fluorescent signal between 520 and 620 nm was produced. The AlphaScreen-based assays were performed in a final reaction volume of 25 μL of the assay buffer containing 10 mM HEPES–NaOH (pH 7.4), 50 mM NaCl, 1 mM EDTA (pH 8.0), 0.1% NP-40, and 10 ng/μL bovine serum albumin (BSA) in a 96-well microtiter plate at 25 °C. The pTyr peptide probes used in this study were 5-carboxyfluorescein (FITC)-GpYLPQTV for STAT3 and (FITC)-GpYDKPHVL for STAT1. Plasmid construction and protein expression were performed as previously described; the experimental method is briefly summarized as follows. Considering that the expression of the full-length protein is troublesome, a truncated form of STAT3 (136-705) was constructed and chromatographically purified (AKTA FPLC system; GE Healthcare Bio-Sciences, Piscataway, NJ, USA). The soluble STAT3 fraction was loaded on a HisTrap™ column (GE Healthcare Bio-Sciences) and eluted with an imidazole gradient (50 mM Tris–HCl pH 7.4, 300 mM NaCl, 0.2 mM EDTA, 0.1% (w/v) NP-40, 5 mM β-mercaptoethanol, 10% (v/v) glycerol, and 10–300 mM imidazole). An SDS-PAGE stained with Coomassie Brilliant Blue (CBB) was performed to check the purity of the protein (see Figure S71). Subsequently, the protein was dialyzed (10 mM HEPES-NaOH pH 7.4, 50 mM NaCl, 10 mM β-mercaptoethanol, 0.1 mM EGTA, 0.02% (w/v) NP-40, 0.2 mM phenylmethylsulphonyl fluoride (PMSF), and 10% (v/v) glycerol).
(§3) Firstly, 75 nM of each SH2-containing protein were incubated with the test compound (at the following concentrations: 1, 3, 10, and 30 µM) for 15 min. Each protein sample was then incubated for 90 min with 50 nM of its corresponding FITC-pTyr peptide and simultaneously mixed with streptavidin-coated donor beads and anti-FITC acceptor beads before detection at 570 nm using EnVison Xcite (PerkinElmer, Waltham, MA, USA).

STAT3 Cys712A = target: T2, STAT3 Cys712A (Homo sapiens, UniProt P40763, C712A); experiment: AlphaScreen-based assay, STAT3 single-cysteine mutant Cys712A; assay type: binding; details: for % of control, STAT3 AlphaScreen: Cys712A
T2 construct: made in house
T2 sequence (P40763 whole entry C712A): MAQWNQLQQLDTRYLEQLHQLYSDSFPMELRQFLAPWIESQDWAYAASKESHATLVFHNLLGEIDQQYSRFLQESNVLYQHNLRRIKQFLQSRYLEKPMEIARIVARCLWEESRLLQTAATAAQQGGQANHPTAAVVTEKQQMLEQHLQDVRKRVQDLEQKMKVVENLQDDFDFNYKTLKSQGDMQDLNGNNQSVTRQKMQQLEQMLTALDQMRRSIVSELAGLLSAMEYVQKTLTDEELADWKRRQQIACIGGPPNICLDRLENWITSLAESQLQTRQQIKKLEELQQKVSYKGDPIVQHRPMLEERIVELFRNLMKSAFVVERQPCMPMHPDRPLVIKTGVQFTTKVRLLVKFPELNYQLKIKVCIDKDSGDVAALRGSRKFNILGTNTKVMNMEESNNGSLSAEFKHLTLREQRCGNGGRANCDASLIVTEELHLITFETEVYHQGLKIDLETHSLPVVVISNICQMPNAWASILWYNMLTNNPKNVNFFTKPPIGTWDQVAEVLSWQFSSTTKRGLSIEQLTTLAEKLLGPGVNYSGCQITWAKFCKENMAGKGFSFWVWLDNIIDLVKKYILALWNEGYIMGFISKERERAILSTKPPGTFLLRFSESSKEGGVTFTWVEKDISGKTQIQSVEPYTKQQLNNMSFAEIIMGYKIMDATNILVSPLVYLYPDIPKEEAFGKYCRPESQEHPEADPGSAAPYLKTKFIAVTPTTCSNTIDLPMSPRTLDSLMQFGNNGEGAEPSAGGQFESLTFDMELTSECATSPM
Protocol: (§4) Furthermore, to gain insight into the activity of compound 1, its interaction with the cysteine residues located in the vicinities of the SH2 domain (Figure 3) was investigated and evaluated by an AlphaScreen-based assay using different mutants (Table 3).
(§5) The same procedure was used to evaluate compound 1 activity versus STAT3 single-cysteine-residue mutants (Cys468A, Cys542A, Cys550A, Cys687A, and Cys712A). Briefly, 3 µL of compound 1 in DMSO (at 0.3, 1, 3, 10 and 30 µM concentration) were premixed with 1 µL of L-Cys in PBS and 16 µL of an AlphaScreen buffer. Then, the mixture was immediately (<5 min) mixed with the STAT3 mutant solution before adding the FITC-peptide.

Grb2 = Grb2 (Homo sapiens, UniProt P62993); experiment: AlphaScreen-based assay, Grb2 (other SH2 domain-containing protein); assay type: binding; details: 30 µM
Grb2, sequence (P62993 whole entry, species assumed, the tested form may be a part): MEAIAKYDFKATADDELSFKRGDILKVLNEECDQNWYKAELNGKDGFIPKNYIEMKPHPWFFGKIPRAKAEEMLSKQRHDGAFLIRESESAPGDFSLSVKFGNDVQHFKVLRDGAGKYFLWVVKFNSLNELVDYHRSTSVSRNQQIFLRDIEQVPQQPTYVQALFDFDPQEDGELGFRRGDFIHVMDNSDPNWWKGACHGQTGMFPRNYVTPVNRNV
Protocol: as §1, §3

STAT3 Cys542A = target: T3, STAT3 Cys542A (Homo sapiens, UniProt P40763, C542A); experiment: AlphaScreen-based assay, STAT3 single-cysteine mutant Cys542A; assay type: binding; details: for % of control, STAT3 AlphaScreen: Cys542A
T3 construct: a truncated form of STAT3 (136-705) was constructed and chromatographically purified; made in house
T3 sequence (P40763 136-705 C542A): as the sequence (P40763 136-705) above, with C407A counted along it
Protocol: as §4, §5

STAT3 Cys687A = target: T4, STAT3 Cys687A (Homo sapiens, UniProt P40763, C687A); experiment: AlphaScreen-based assay, STAT3 single-cysteine mutant Cys687A; assay type: binding; details: for % of control, STAT3 AlphaScreen: Cys687A
T4 construct: a truncated form of STAT3 (136-705) was constructed and chromatographically purified; made in house
T4 sequence (P40763 136-705 C687A): as the sequence (P40763 136-705) above, with C552A counted along it
Protocol: as §4, §5

[1] = set-up: method as in doi:10.1039/P29840001851; details: cited from earlier work
STAT1 = target: T5, STAT1 (Homo sapiens, UniProt P42224); experiment: AlphaScreen-based competitive binding assay, STAT1 vs FITC-GpYDKPHVL; details: read-out: STAT1 inhibition: IC50
T5 sequence (P42224 1-750): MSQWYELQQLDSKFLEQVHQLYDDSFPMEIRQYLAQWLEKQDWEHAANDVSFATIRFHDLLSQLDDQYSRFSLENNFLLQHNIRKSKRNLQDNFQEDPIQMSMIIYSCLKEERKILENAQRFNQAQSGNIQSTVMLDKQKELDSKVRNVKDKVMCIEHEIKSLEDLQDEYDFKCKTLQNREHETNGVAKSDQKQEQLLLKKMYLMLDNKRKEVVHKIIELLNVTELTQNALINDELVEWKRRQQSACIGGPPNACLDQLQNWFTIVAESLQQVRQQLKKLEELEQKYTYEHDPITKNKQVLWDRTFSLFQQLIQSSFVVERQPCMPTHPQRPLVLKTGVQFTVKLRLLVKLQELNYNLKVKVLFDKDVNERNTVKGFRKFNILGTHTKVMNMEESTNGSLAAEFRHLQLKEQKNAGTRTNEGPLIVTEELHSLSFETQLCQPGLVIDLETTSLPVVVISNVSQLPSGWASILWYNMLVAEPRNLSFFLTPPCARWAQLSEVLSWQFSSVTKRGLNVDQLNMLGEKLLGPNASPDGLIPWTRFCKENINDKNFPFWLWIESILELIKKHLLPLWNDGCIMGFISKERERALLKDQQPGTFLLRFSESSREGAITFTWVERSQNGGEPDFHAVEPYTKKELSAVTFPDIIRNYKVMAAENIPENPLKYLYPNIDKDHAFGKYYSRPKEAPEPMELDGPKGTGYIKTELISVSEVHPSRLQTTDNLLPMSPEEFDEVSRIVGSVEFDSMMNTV
Source text: as §1
as §2, with “The soluble STAT3 fraction was loaded on a HisTrap™ column (GE Healthcare Bio-Sciences) and eluted with an imidazole gradient (50 mM Tris–HCl pH 7.4, 300 mM NaCl, 0.2 mM EDTA, 0.1% (w/v) NP-40, 5 mM β-mercaptoethanol, 10% (v/v) glycerol, and 10–300 mM imidazole). An SDS-PAGE stained with Coomassie Brilliant Blue (CBB) was performed to check the purity of the protein (see Figure S71). Subsequently, the protein was dialyzed (10 mM HEPES-NaOH pH 7.4, 50 mM NaCl, 10 mM β-mercaptoethanol, 0.1 mM EGTA, 0.02% (w/v) NP-40, 0.2 mM phenylmethylsulphonyl fluoride (PMSF), and 10% (v/v) glycerol).” left out

STAT3 Cys550A = target: T6, STAT3 Cys550A (Homo sapiens, UniProt P40763, C550A); experiment: AlphaScreen-based assay, STAT3 single-cysteine mutant Cys550A; assay type: binding; details: for % of control, STAT3 AlphaScreen: Cys550A
T6 construct: a truncated form of STAT3 (136-705) was constructed and chromatographically purified; made in house
T6 sequence (P40763 136-705 C550A): as the sequence (P40763 136-705) above, with C415A counted along it
Protocol: as §4, §5

STAT3 Cys468A = target: T7, STAT3 Cys468A (Homo sapiens, UniProt P40763, C468A); experiment: AlphaScreen-based assay, STAT3 single-cysteine mutant Cys468A; assay type: binding; details: for % of control, STAT3 AlphaScreen: Cys468A
T7 construct: a truncated form of STAT3 (136-705) was constructed and chromatographically purified; made in house
T7 sequence (P40763 136-705 C468A): as the sequence (P40763 136-705) above, with C333A counted along it
Protocol: as §4, §5

Cc1cc2c(cc1C)NS(=O)(=O)N2 [Compound 1, 5,6-Dimethyl-1H,3H-2,1,3-benzothiadiazole-2,2-dioxide]
inhibition at 30 µM (STAT3; 30 µM, n.a.: not active, read-out: STAT3 % Inhibition (30 µM)): 96.5 ± 1.1% | IC50 (STAT3; STAT3 wild-type (WT), read-out: STAT3 inhibition: IC50): 15.8 µM | inhibition at 30 µM (STAT3; Table 1, AlphaScreen-based assay at 30 µM, STAT3-SH2 domain, read-out: % Inhibition): 96.5% | % of control, STAT3 AlphaScreen (STAT3; [1] 1 μM): 98.6 % of control | % of control, STAT3 AlphaScreen (STAT3; [1] 3 μM): 94.1 % of control | % of control, STAT3 AlphaScreen (STAT3; [1] 10 μM): 72.4 % of control | % of control, STAT3 AlphaScreen (STAT3; [1] 30 μM): 18.4 % of control | melting point: 148 °C | % of control, STAT3 AlphaScreen (STAT3 Cys712A; [1] 1 μM): 113.4 % of control | % of control, STAT3 AlphaScreen (STAT3 Cys712A; [1] 3 μM): 112.4 % of control | % of control, STAT3 AlphaScreen (STAT3 Cys712A; [1] 10 μM): 110.5 % of control | % of control, STAT3 AlphaScreen (STAT3 Cys712A; [1] 30 μM): 108.0 % of control | IC50 (STAT3 Cys712A; mutated Cys712A): > 30 µM | inhibition versus Grb2 (Grb2): 23% | % of control, STAT3 AlphaScreen (STAT3 Cys542A; [1] 1 μM): 102.5 % of control | % of control, STAT3 AlphaScreen (STAT3 Cys542A; [1] 3 μM): 101.3 % of control | % of control, STAT3 AlphaScreen (STAT3 Cys542A; [1] 10 μM): 98.1 % of control | % of control, STAT3 AlphaScreen (STAT3 Cys542A; [1] 30 μM): 92.3 % of control | IC50 (STAT3 Cys542A; mutated Cys542A): > 30 µM | % of control, STAT3 AlphaScreen (STAT3 Cys687A; [1] 1 μM): 93.3 % of control | % of control, STAT3 AlphaScreen (STAT3 Cys687A; [1] 3 μM): 89.7 % of control | % of control, STAT3 AlphaScreen (STAT3 Cys687A; [1] 10 μM): 78.3 % of control | % of control, STAT3 AlphaScreen (STAT3 Cys687A; [1] 30 μM): 51.9 % of control | IC50 (STAT3 Cys687A; mutated Cys687A): > 30 µM | pKa [1]: 6.88 ± 0.03 | IC50 (STAT1): > 50 µM | % of control, STAT3 AlphaScreen (STAT3 Cys550A; [1] 1 μM): 132.9 % of control | % of control, STAT3 AlphaScreen (STAT3 Cys550A; [1] 3 μM): 136.0 % of control | % of control, STAT3 AlphaScreen (STAT3 Cys550A; [1] 10 μM): 135.2 % of control | % of control, STAT3 AlphaScreen (STAT3 Cys550A; [1] 30 μM): 124.7 % of control | IC50 (STAT3 Cys550A; mutated Cys550A): > 30 µM | % of control, STAT3 AlphaScreen (STAT3 Cys468A; [1] 1 μM): 111.8 % of control | % of control, STAT3 AlphaScreen (STAT3 Cys468A; [1] 3 μM): 108.3 % of control | % of control, STAT3 AlphaScreen (STAT3 Cys468A; [1] 10 μM): 101.1 % of control | % of control, STAT3 AlphaScreen (STAT3 Cys468A; [1] 30 μM): 79.7 % of control | IC50 (STAT3 Cys468A; mutated Cys468A): > 30 µM
